Assay type in all cases: cell-based
The subject of one experiment is p53 pathway. The experiment can be described thus: Western blot of p53 and p21 in HCT-116 cells. The text has this: (§1) Image analysis: Cells were fixed and stained with Hoechst dye and anti-(3-tubulin, anti-pericentrin and anti-centromere antibodies. Images were taken on a BD Pathway high content imaging system. For cell cycle analysis, cells were fixed, stained with propidium iodide and analyzed by FACS. For Western blot analysis, cell lysates were run on SDS-polyacrylamide gels and proteins were transferred to PVDF membrane. Membranes were probed with the indicated antibodies.
(§2) Western blot analyses: Cells were lysed in 10 mM Tris-HCl pH 7.5, 1 mM EDTA, 150 mM NaCl, 10% glycerol, protease inhibitor cocktail, phosphatase 1, and phosphatase 2. Protein yields were determined by Bradford assay and equivalent amounts of protein were loaded for each sample.
Antibodies: All antibodies were purchased from Cell Signaling Technology.
Cell lysates were analyzed by Western blot with anti-p53, anti-p21 or anti-β-actin antibodies (see FIG. 4A).
(§3) p53 was previously reported to suppress the expression of survivin. […] Cell lysates were analyzed by Western blot with anti-p53, anti-survivin or anti-β-actin antibodies (see FIG. 4C). […] Induction of p53 preceded the loss of survivin.
For orientation: A western blot detects proteins with antibodies after separation by electrophoresis.

In the next experiment the test system is survivin. The experiment can be described thus: Western blot of survivin in HCT-116 cells. The conditions noted are these: increasing concentrations, 48 hours. Here is the method:
as §2, §3

The next experiment concerns p53. The experiment can be described thus: Western blot with phosphospecific anti-p53 antibodies in HCT-116 cells. As to conditions: 1 μM, 48 hours. The method, then:
as §2
Phosphorylation of p53 at various sites on the N-terminus results in the stabilization of p53. […] Cell lysates were analyzed by Western blot with anti-GAPDH, anti-p53 or the phosphospecific anti-p53 antibodies.

In another experiment the test system is histone H2AX. As to the kind of experiment: Western blot of H2AX-pS139 in HCT-116 cells. The conditions noted are these: 1 μM, 7, 24, 36 or 48 hours. The method, then: as §2
Phosphorylation and stabilization of p53 occurs in response to DNA damage. Phosphorylation of H2AX functions to recruit DNA repair enzymes to sites of DNA damage and serves as a marker for DNA double strand breaks. […] Cell lysates were analyzed by Western blot with anti-H2AX-pS139 (gH2AX) or β-actin antibodies. […] Inhibition of TTK induces the phosphorylation of p53 on serine 15 and H2AX on serine 139.

Another experiment deals with A549 cells. The experiment can be described thus: Image analysis of chromosome segregation. The conditions noted are these: 10 μM, 24 hours.
Description: as §1
Cells were stained with Hoechst dye (blue) and anti-tubulin (green), anti-pericentrin (red) and anti-centromere (white) antibodies.

The test system of the next experiment is p21 mRNA. As to the kind of experiment: qRT-PCR of p21 mRNA in HCT-116 cells. As to conditions: 1 μM, time course, relative to 7 hour DMSO control. The method, then: For qRT-PCR: Primer probe sets for p21 and GAPDH were purchased from Applied Biosystems. qRT-PCR was performed using the Quantitect Probe RT-PCR Kit from Qiagen following the standard protocol.
The p21 mRNA levels were normalized to the GAPDH mRNA levels from the same total RNA sample.
In general terms: Quantitative PCR measures a nucleic acid by following its amplification.

Another experiment concerns HCT-116 cells. As to the kind of experiment: Cell cycle analysis by FACS (propidium iodide). As to conditions: 1 μM, 24, 48 or 72 hours.
Description: as §1
Cells were fixed, stained with propidium iodide and analyzed by fluorescence activated cell sorting (FACS) using a FACScan instrument.
For orientation: A flow cytometer gives signals particle by particle.

The test system of the next experiment is SK-BR-3. As to the kind of experiment: CellTiter Glo cell viability, 7 days. The conditions noted are these: Homo sapiens, 168 h, breast, read-out: 7 day IC50. Here is the method:
(§4) The compounds of the present invention were tested against a panel of cancer cells to determine the effect on cell viability. Viability was determined by measuring cellular ATP levels using CellTiter Glo reagent (Promega, Madison, Wis.).
(§5) MATERIALS: • A. Cancer cell lines obtained from ATCC or DSMZ • B. RPMI supplemented with 10% FBS/L-glutamine/NEAA/HEPES/Na-Pyruvate • C. DMEM supplemented with 10% FBS and L-glutamine. • B. Compounds, typically 50 mM stocks diluted in DMSO; • C. Clear, flat, TC-surface bottomed 96-well microplates (Corning #3595) • D. CellTiter-Glo® Luminescent Cell Viability Assay (Promega #G7573)
(§6) METHODS: • 1. Cells were plated at densities of 2000-5000 cells per well in 100 μl volume on a 96-well plate, and were incubated overnight. • 2. Test compound(s) were serially diluted to the desired 250× concentration. • 3. For each concentration of compound to be tested, 0.4 μl of 250× compound was added in triplicate to the cell plates. Plates were then incubated at 37° C. for 7 days. • 4. 100 μL of prepared CellTiter Glo reagent was added to treated cells, and plates were gently mixed for 2 minutes, and equilibrated for 10 minutes at room temperature. • 5. Luminescence was measured and the viability of treated cells relative to DMSO control was calculated.
(§7) Cancer cell lines were treated with TTK inhibitor for 7 days and cell viability was measured using the CellTiter Glo assay (Promega, Madison, Wis.).

The next experiment has as its system OPM-2. The experiment can be described thus: CellTiter Glo cell viability, 7 days. As to conditions: Homo sapiens, 168 h, blood, read-out: 7 day IC50. The method, then:
as §4, §5, §6, §7

Another experiment relates to ZR-75-1. As to the kind of experiment: CellTiter Glo cell viability, 7 days. The conditions noted are these: Homo sapiens, 168 h, breast, read-out: 7 day IC50. Here is the method: as §4, §5, §6, §7
Another experiment concerns MCF-7. As to the kind of experiment: CellTiter Glo cell viability, 7 days. As to conditions: Homo sapiens, MCF7, 168 h, breast, read-out: 7 day IC50. The method, then: as §4, §5, §6, §7
For a further experiment, the system named is OVCAR-5. The experiment can be described thus: CellTiter Glo cell viability, 7 days. The conditions noted are these: Homo sapiens, 168 h, ovarian, read-out: 7 day IC50. The method, then:
as §4, §5, §6, §7

The test system of the next experiment is OVCAR-3. As to the kind of experiment: CellTiter Glo cell viability, 7 days. As to conditions: Homo sapiens, 168 h, ovarian, read-out: 7 day IC50. Here is the method: as §4, §5, §6, §7
The next experiment relates to PANC1. The experiment can be described thus: CellTiter Glo cell viability, 7 days. The conditions noted are these: Homo sapiens, PANC-1, 168 h, pancreas, read-out: 7 day IC50. The method, then: as §4, §5, §6, §7
Another experiment concerns Colo-205. The experiment can be described thus: CellTiter Glo cell viability, 7 days. The conditions noted are these: Homo sapiens, 168 h, colon, read-out: 7 day IC50. The method, then: as §4, §5, §6, §7
The next experiment concerns BxPC-3. The experiment can be described thus: CellTiter Glo cell viability, 7 days. The conditions noted are these: Homo sapiens, 168 h, pancreas, read-out: 7 day IC50. The method, then:
as §4, §5, §6, §7

Another experiment has as its system BT-474. As to the kind of experiment: CellTiter Glo cell viability, 7 days. The conditions noted are these: Homo sapiens, 168 h, breast, read-out: 7 day IC50. Here is the method: as §4, §5, §6, §7
The subject of a further experiment is U-87MG. As to the kind of experiment: CellTiter Glo cell viability, 7 days. As to conditions: Homo sapiens, 168 h, CNS, read-out: 7 day IC50. The method, then:
as §4, §5, §6, §7

In a further experiment the test system is NCI-N87. The experiment can be described thus: CellTiter Glo cell viability, 7 days. The conditions noted are these: Homo sapiens, 168 h, gastric, read-out: 7 day IC50. Here is the method:
as §4, §5, §6, §7

For a further experiment, the system named is DU4475. The experiment can be described thus: CellTiter Glo cell viability, 7 days. As to conditions: Homo sapiens, DU-4475, 168 h, breast, read-out: 7 day IC50. The method, then: as §4, §5, §6, §7
The subject of a further experiment is DMS-114. The experiment can be described thus: CellTiter Glo cell viability, 7 days. The conditions noted are these: Homo sapiens, 168 h, lung, read-out: 7 day IC50. The method, then:
as §4, §5, §6, §7

A further experiment concerns DU-145. The experiment can be described thus: CellTiter Glo cell viability, 7 days. As to conditions: Homo sapiens, 168 h, prostate, read-out: 7 day IC50. Here is the method:
as §4, §5, §6, §7

A further experiment concerns 786-0. As to the kind of experiment: CellTiter Glo cell viability, 7 days. As to conditions: Homo sapiens, 168 h, kidney, read-out: 7 day IC50. The method, then:
as §4, §5, §6, §7

The subject of another experiment is HCC827. As to the kind of experiment: CellTiter Glo cell viability, 7 days. As to conditions: Homo sapiens, 168 h, lung, read-out: 7 day IC50. Here is the method: as §4, §5, §6, §7
A further experiment deals with MDA-MB-436. The experiment can be described thus: CellTiter Glo cell viability, 7 days. As to conditions: Homo sapiens, 168 h, breast, read-out: 7 day IC50. The method, then: as §4, §5, §6, §7
For another experiment, the system named is IGR-OV1. As to the kind of experiment: CellTiter Glo cell viability, 7 days. As to conditions: Homo sapiens, IGROV-1, 168 h, ovarian, read-out: 7 day IC50. The method, then: as §4, §5, §6, §7
In the next experiment the test system is KARPAS-299. The experiment can be described thus: CellTiter Glo cell viability, 7 days. The conditions noted are these: Homo sapiens, 168 h, blood, read-out: 7 day IC50. The method, then:
as §4, §5, §6, §7

For another experiment, the system named is MDA-MB-231. The experiment can be described thus: CellTiter Glo cell viability, 7 days. The conditions noted are these: Homo sapiens, 168 h, breast, read-out: 7 day IC50. Here is the method: as §4, §5, §6, §7
A further experiment relates to PC-3. As to the kind of experiment: CellTiter Glo cell viability, 7 days. The conditions noted are these: Homo sapiens, 168 h, prostate, read-out: 7 day IC50. The method, then:
as §4, §5, §6, §7

A further experiment deals with HCT-15. As to the kind of experiment: CellTiter Glo cell viability, 7 days. As to conditions: Homo sapiens, 168 h, colon, read-out: 7 day IC50. Here is the method:
as §4, §5, §6, §7

The subject of the next experiment is SW-480. As to the kind of experiment: CellTiter Glo cell viability, 7 days. As to conditions: Homo sapiens, SW480, 168 h, colon, read-out: 7 day IC50. The method, then: as §4, §5, §6, §7

The results in this text go back to patent publication US20120122840A1, “COMPOUNDS AND THERAPEUTIC USES THEREOF” (Myrexis, Inc., priority 2009, published 2012).

Regarding `Cc1cc(N2CCOCC2)ccc1Nc1nc(NC2CCCCC2)c2nc[nH]c2n1` [Compound A, N6-cyclohexyl-N2-(2-methyl-4-morpholino-phenyl)-9H-purine-2,6-diamine], the “time of maximal induction of the p53 pathway” value with p53 pathway (1 μM) was no more than 36 h. The “p53 pathway activation (p53, p21 protein)” value in the experiment on p53 pathway (1 μM, time course) was “activate the p53 pathway in a time- and dose-dependent manner”. Besides, the p53 protein induction entry in the experiment on p53 pathway (increasing concentrations, 48 hours) was “induced p53 in a dose- and time-dependent manner”. Also, the survivin protein entry in the experiment with survivin is on record as “decrease in survivin protein”. For the same compound, the “site of p53 phosphorylation” value in the experiment with p53 is given as “phosphorylated on serine 15”. The “phosphorylation of serine 139 on H2AX” value in the experiment with histone H2AX was “induced by Compound A in a time-dependent manner”. Further, in the experiment on A549 cells, the chromosome segregation result is “causes chromosome segregation defects”. Further, the “p21 mRNA normalized to GAPDH mRNA” value with p21 mRNA is listed as “induced in a time-dependent manner”. Also, the “DNA content (ploidy)” value in the experiment with HCT-116 cells is “both aneuploidy, as seen in FIG. 3 by a broadening of the 2N and 4N peaks, as well as the formation of tetraploid (8N) cells”.

In general, IC50 refers to the concentration needed to halve the response being measured. As for `Cc1cc(N2CCOCC2)ccc1Nc1nc(NC2CCCCC2)c2nc[nH]c2n1` [N6-cyclohexyl-N2-(2-methyl-4-morpholino-phenyl)-9H-purine-2,6-diamine], the half-inhibitory concentration (IC50) is 56 nM in the experiment with SK-BR-3; 99 nM with OPM-2; 56 nM in the experiment on ZR-75-1; 61 nM in the experiment with MCF-7; 150 nM in the experiment on OVCAR-5; 150 nM in the experiment with OVCAR-3. In addition, the IC50 was 3.7 µM in the experiment on PANC1; 90 nM with Colo-205; 120 nM with BxPC-3; greater than 30 µM in the experiment with BT-474; 670 nM with U-87MG; 2100 nM in the experiment with NCI-N87. Besides, the half-inhibitory concentration (IC50) in the experiment on DU4475 is 72 nM; with DMS-114, 180 nM; in the experiment with DU-145 it was 370 nM; in the experiment with 786-0, 1200 nM; in the experiment on HCC827, 94 nM; with MDA-MB-436, 8.7 µM. The IC50 with IGR-OV1 was 580 nM; in the experiment on KARPAS-299 it was 96 nM; in the experiment with MDA-MB-231 it was 28 µM; in the experiment with PC-3 it was 200 nM; in the experiment with HCT-15, 280 nM; in the experiment on SW-480, 140 nM.
